The target in this assay is human Kv1.5 channel (Homo sapiens, UniProt P22460). As to the kind of experiment: Test A: Rb+ efflux assay. The conditions noted are these: CHO cells stably transfected with cDNA for human Kv1.5. The class given is cell-based. The method, then: This assay identifies compounds that block the human Kv1.5 channel potassium channel heterologously expressed in Chinese Hamster Ovary (CHO) cells by means of Rb+ ion efflux using Flame Atomic Absorption Spectroscopy. For experimental studies, CHO cells stably transfected with cDNA for human Kv1.5 were grown as confluent layers in Falcon, 384-well tissue culture-treated black-walled clear-bottomed plates and the plates were incubated overnight at 37° C. in a cell culture incubator.
Chain of human Kv1.5 channel (P22460 whole entry): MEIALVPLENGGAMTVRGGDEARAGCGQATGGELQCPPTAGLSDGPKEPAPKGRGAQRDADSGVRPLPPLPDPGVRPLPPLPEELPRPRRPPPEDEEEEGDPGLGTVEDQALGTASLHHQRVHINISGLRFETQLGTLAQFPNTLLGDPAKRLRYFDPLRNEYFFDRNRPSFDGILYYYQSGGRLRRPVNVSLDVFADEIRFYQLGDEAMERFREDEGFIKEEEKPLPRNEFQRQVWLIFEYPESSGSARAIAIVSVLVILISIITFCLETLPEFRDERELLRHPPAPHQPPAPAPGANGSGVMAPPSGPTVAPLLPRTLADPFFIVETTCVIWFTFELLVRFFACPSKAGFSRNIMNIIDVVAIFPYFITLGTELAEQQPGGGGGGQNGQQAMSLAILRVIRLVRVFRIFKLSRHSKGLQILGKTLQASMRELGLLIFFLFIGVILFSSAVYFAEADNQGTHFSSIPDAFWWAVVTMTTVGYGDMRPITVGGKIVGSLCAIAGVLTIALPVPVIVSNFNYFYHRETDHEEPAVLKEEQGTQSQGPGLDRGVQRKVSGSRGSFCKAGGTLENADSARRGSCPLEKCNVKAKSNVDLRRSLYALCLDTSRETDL
After incubating overnight the cell plates were washed and a buffer containing Rb+ ions were added to the cell plates. The plates were then incubated for another 3-4 hours in a CO2-incubator (37° C.). Following this incubation period plates were washed, compounds were added and subsequently a buffer containing elevated K+ concentrations were added in order to activate the Kv1.5 channel. Following a short incubation time, aliquots of the supernatants were transferred to supernatant plates for subsequent determination of the Rb+ content using Atomic Absorption Spectrometry (ICR8000 instrument, Aurora Biomed Inc.).
As usually defined, the IC50 is the concentration needed to halve the response being measured. On to `CCCCNC(=O)C1c2c(F)cccc2C(=O)N1CC(C)c1ccc(Cl)cc1` (stereo not shown), for which half-maximal inhibition (IC50) required 1300 nM.
The figure for `CC(C)(C)NC(=O)C1c2ccccc2C(=O)N1Cc1ccccc1-c1ccc(F)c(F)c1` (single isomer, unassigned) [(1R or 1S)-N-(tert-butyl)-2-[(3′,4′-difluorobiphenyl-2-yl)methyl]-3-oxoisoindoline-1-carboxamide] is 13000 nM; for `CC(c1ccccc1)N1C(=O)c2ccccc2C1C(=O)NCc1ccccc1` (single isomer, unassigned) [(1R or 1S)-N-benzyl-3-oxo-2-[(1S or 1R)-1-phenylethyl]isoindoline-1-carboxamide] it is 1500 nM; for `CCCCNC(=O)C1c2cc(F)ccc2C(=O)N1CC(C)c1ccc(Cl)cc1` (single isomer, unassigned) [(1R or 1S)-N-butyl-2-[(2R or 2S)-2-(4-chlorophenyl)propyl]-6-fluoro-3-oxoisoindoline-1-carboxamide] it is 500 nM.
Turning to `CCCCNC(=O)C1c2cc(F)ccc2C(=O)N1CC(C)c1ccc(Cl)cc1` (single isomer, unassigned) [(1R or 1S)-N-butyl-2-[(2S or 2R)-2-(4-chlorophenyl)propyl]-6-fluoro-3-oxoisoindoline-1-carboxamide], half-maximal inhibition (IC50) was put at 1700 nM.
Under `CC(C)(C)NC(=O)C1c2ccccc2C(=O)N1Cc1ccccc1-c1ccc(F)c(F)c1` (single isomer, unassigned) [(1S or 1R)-N-(tert-butyl)-2-[(3′,4′-difluorobiphenyl-2-yl)methyl]-3-oxoisoindoline-1-carboxamide] stands 5500 nM.
On to `CCCCNC(=O)C1c2cc(F)ccc2C(=O)N1CC(C)c1ccc(Cl)cc1` (single isomer, unassigned) [(1S or 1R)-N-butyl-2-[(2R or 2S)-2-(4-chlorophenyl)propyl]-6-fluoro-3-oxoisoindoline-1-carboxamide], for which half-maximal inhibition (IC50) was put at 730 nM. Compared with the last compound, the IC50 is about 7.5-fold lower.
Under `CCCCNC(=O)C1c2cc(F)ccc2C(=O)N1CC(C)c1ccc(Cl)cc1` (single isomer, unassigned) [(1S or 1R)-N-butyl-2-[(2S or 2R)-2-(4-chlorophenyl)propyl]-6-fluoro-3-oxoisoindoline-1-carboxamide] stands 15000 nM; under `Cc1c(O)ccc2c1C(=O)N(Cc1ccccc1-c1ccccc1)C2C(=O)NC(C)(C)C` (single isomer, unassigned) [(R or S) 2-(biphenyl-2-ylmethyl)-N-(tert-butyl)-5-hydroxy-4-methyl-3-oxoisoindoline-1-carboxamide], 1100 nM.
The compound `Cc1c(O)ccc2c1C(=O)N(Cc1ccccc1-c1ccccc1)C2C(=O)NC(C)(C)C` (single isomer, unassigned) [(S or R) 2-(biphenyl-2-ylmethyl)-N-(tert-butyl)-5-hydroxy-4-methyl-3-oxoisoindoline-1-carboxamide] gave a half-inhibitory concentration (IC50) of 17000 nM.
The figure for `N#Cc1cccc(CNC(=O)C2c3ccccc3C(=O)N2Cc2cccc(Cl)c2)c1` (stereo not shown) [2-(3-chlorobenzyl)-N-(3-cyanobenzyl)-3-oxoisoindoline-1-carboxamide] is 2000 nM; for `O=C(NCCCC(F)(F)F)C1c2ccccc2C(=O)N1Cc1ccccc1-c1ccccc1` (stereo not shown) [2-(biphenyl-2-ylmethyl)-3-oxo-N-(4,4,4-trifluorobutyl)isoindoline-1-carboxamide] it is 1500 nM.
The figure for `O=C(NCc1ccc(C(F)(F)F)nc1)C1c2ccccc2C(=O)N1Cc1ccccc1-c1ccccc1` (stereo not shown) [2-(biphenyl-2-ylmethyl)-3-oxo-N-{[6-(trifluoromethyl)pyridin-3-yl]methyl}isoindoline-1-carboxamide] is 940 nM; for `CC(C)(C)NC(=O)C1c2cc(Br)ccc2C(=O)N1Cc1ccccc1-c1ccccc1` (stereo not shown) [2-(biphenyl-2-ylmethyl)-6-bromo-N-(tert-butyl)-3-oxoisoindoline-1-carboxamide] it is 2400 nM; for `O=C(NCCCC(F)(F)F)C1c2cc(Cl)ccc2C(=O)N1Cc1ccccc1-c1ccccc1` (stereo not shown) [2-(biphenyl-2-ylmethyl)-6-chloro-3-oxo-N-(4,4,4-trifluorobutyl)isoindoline-1-carboxamide] it is 610 nM.
Under `CCCNC(=O)C1c2cc(Cl)ccc2C(=O)N1Cc1ccccc1-c1ccccc1` (stereo not shown) [2-(biphenyl-2-ylmethyl)-6-chloro-3-oxo-N-propylisoindoline-1-carboxamide] stands 1100 nM.
Turning to `O=C(NCc1ccc(C(F)(F)F)nc1)C1c2cc(Cl)ccc2C(=O)N1Cc1ccccc1-c1ccccc1` (stereo not shown) [2-(biphenyl-2-ylmethyl)-6-chloro-3-oxo-N-{[6-(trifluoromethyl)pyridin-3-yl]methyl}isoindoline-1-carboxamide], half-maximal inhibition (IC50) was put at 1500 nM.
Under `CCNC(=O)C1c2cc(Cl)ccc2C(=O)N1Cc1ccccc1-c1ccccc1` (stereo not shown) [2-(biphenyl-2-ylmethyl)-6-chloro-N-ethyl-3-oxoisoindoline-1-carboxamide] stands 1000 nM; under `O=C(NCCCC(F)(F)F)C1c2cc(F)ccc2C(=O)N1Cc1ccccc1-c1ccccc1` (stereo not shown) [2-(biphenyl-2-ylmethyl)-6-fluoro-3-oxo-N-(4,4,4-trifluorobutyl)isoindoline-1-carboxamide], 2700 nM; under `CCCNC(=O)C1c2cc(F)ccc2C(=O)N1Cc1ccccc1-c1ccccc1` (stereo not shown) [2-(biphenyl-2-ylmethyl)-6-fluoro-3-oxo-N-propylisoindoline-1-carboxamide], 2800 nM.
The figure for `N#Cc1ccc(CNC(=O)C2c3ccccc3C(=O)N2Cc2ccccc2-c2ccccc2)cc1` (stereo not shown) [2-(biphenyl-2-ylmethyl)-N-(4-cyanobenzyl)-3-oxoisoindoline-1-carboxamide] is 2800 nM; for `O=C(NCc1ccc(CNC(=O)C2c3ccccc3C(=O)N2Cc2ccccc2-c2ccccc2)cc1)C(F)F` (stereo not shown) [2-(biphenyl-2-ylmethyl)-N-(4-{[(difluoroacetyl)amino]methyl}benzyl)-3-oxoisoindoline-1-carboxamide] it is 2400 nM.
Under `Cc1c(OCF)ccc2c1C(=O)N(Cc1ccccc1-c1ccccc1)C2C(=O)NC(C)(C)C` (stereo not shown) [2-(biphenyl-2-ylmethyl)-N-(tert-butyl)-5-(fluoromethoxy)-4-methyl-3-oxoisoindoline-1-carboxamide] stands 1700 nM; under `COc1ccc2c(c1C)C(=O)N(Cc1ccccc1-c1ccccc1)C2C(=O)NC(C)(C)C` (stereo not shown) [2-(biphenyl-2-ylmethyl)-N-(tert-butyl)-5-methoxy-4-methyl-3-oxoisoindoline-1-carboxamide], 2200 nM; under `CC(C)(C)NC(=O)C1c2cc(Cl)ccc2C(=O)N1Cc1ccccc1-c1ccccc1` (stereo not shown) [2-(biphenyl-2-ylmethyl)-N-(tert-butyl)-6-chloro-3-oxoisoindoline-1-carboxamide], 1600 nM.
`CC(C)(C)NC(=O)C1c2cc(C#N)ccc2C(=O)N1Cc1ccccc1-c1ccccc1` (stereo not shown) [2-(biphenyl-2-ylmethyl)-N-(tert-butyl)-6-cyano-3-oxoisoindoline-1-carboxamide] showed an IC50 of 2400 nM.
Take `CC(C)(C)NC(=O)C1c2cc(F)ccc2C(=O)N1Cc1ccccc1-c1ccccc1` (stereo not shown) [2-(biphenyl-2-ylmethyl)-N-(tert-butyl)-6-fluoro-3-oxoisoindoline-1-carboxamide]: the IC50 stood at 6700 nM.
Take `CC(C)(C)NC(=O)C1c2c(O)cccc2C(=O)N1Cc1ccccc1-c1ccccc1` (stereo not shown) [2-(biphenyl-2-ylmethyl)-N-(tert-butyl)-7-hydroxy-3-oxoisoindoline-1-carboxamide]: the midpoint of inhibition, the IC50, lay at 3000 nM. Compared with the last compound, the IC50 is about 2.2-fold lower.
Under `O=C(NCc1ccc(F)cc1)C1c2ccccc2C(=O)N1C(c1ccccc1)c1ccccc1` (stereo not shown) [2-(diphenylmethyl)-N-(4-fluorobenzyl)-3-oxoisoindoline-1-carboxamide] stands 2500 nM; under `CC(CN1C(=O)c2ccccc2C1C(=O)NCCCC(F)(F)F)c1ccc(Cl)cc1` (stereo not shown) [2-[2-(4-chlorophenyl)propyl]-3-oxo-N-(4,4,4-trifluorobutyl)isoindoline-1-carboxamide], 1800 nM; under `CC(CN1C(=O)c2ccccc2C1C(=O)NCc1ccccc1C(F)(F)F)c1ccc(Cl)cc1` (stereo not shown) [2-[2-(4-chlorophenyl)propyl]-3-oxo-N-[2-(trifluoromethyl)benzyl]isoindoline-1-carboxamide], 700 nM.
`CCCNC(=O)C1c2ccccc2C(=O)N1CC(C)c1ccc(Cl)cc1` (stereo not shown) [2-[2-(4-chlorophenyl)propyl]-3-oxo-N-propylisoindoline-1-carboxamide] registered an IC50 of 1300 nM.
The figure for `CC(CN1C(=O)c2ccccc2C1C(=O)NCc1ccc(C(F)(F)F)nc1)c1ccc(Cl)cc1` (stereo not shown) [2-[2-(4-chlorophenyl)propyl]-3-oxo-N-{[6-(trifluoromethyl)pyridin-3-yl]methyl}isoindoline-1-carboxamide] is 780 nM; for `CCCNC(=O)C1c2cc(F)ccc2C(=O)N1CC(C)c1ccc(Cl)cc1` (stereo not shown) [2-[2-(4-chlorophenyl)propyl]-6-fluoro-3-oxo-N-propylisoindoline-1-carboxamide] it is 2300 nM; for `CC(CN1C(=O)c2ccccc2C1C(=O)NCc1ccc(C#N)cc1)c1ccc(Cl)cc1` (stereo not shown) [2-[2-(4-chlorophenyl)propyl]-N-(4-cyanobenzyl)-3-oxoisoindoline-1-carboxamide] it is 1200 nM.
Under `CC(CN1C(=O)c2ccccc2C1C(=O)NCc1ccc(F)cc1)c1ccc(Cl)cc1` (stereo not shown) [2-[2-(4-chlorophenyl)propyl]-N-(4-fluorobenzyl)-3-oxoisoindoline-1-carboxamide] stands 1900 nM; under `CC(CN1C(=O)c2ccccc2C1C(=O)NCCc1c[nH]c2ccccc12)c1ccc(Cl)cc1` (stereo not shown) [2-[2-(4-chlorophenyl)propyl]-N-[2-(1H-indol-3-yl)ethyl]-3-oxoisoindoline-1-carboxamide], 620 nM.

Values taken from patent US20080015237A1 (ASTRAZENECA AB, priority 2006, published 2008).
